From article PMC9022229, “Induction of Paraptosis by Cyclometalated Iridium Complex-Peptide Hybrids and CGP37157 via a Mitochondrial Ca^2+ Overload Triggered by Membrane Fusion between Mitochondria and the Endoplasmic Reticulum” (Biochemistry, 2022)
Read-outs that look alike come from different tables or passages of the source. Residues, ends and D or L forms follow the SMILES beside them. *: point of attachment. X1 = O=C(COc1ccc(-c2ccccn2)cc1)NCCCCCCCCN*

What was measured:
Format in all cases: cell-based
Jurkat cells [1] = test system: Jurkat cells
Method: The cytotoxicity of 4 against Jurkat cells was evaluated by conducting MTT assays [MTT = 3-(4,5-dimethyl-2-thiazolyl)-2,5-diphenyl-2H-tetrazolium bromide] as a function of time and by microscopic observations to determine the appropriate conditions for mechanistic studies of paraptosis (Figure 1).
It was reported that an inhibitor of a mitochondrial Na^+/Ca^2+ exchanger (mNCX), which functions to export Ca^2+ from the mitochondrial matrix to the cytosol in exchange with cytosolic Na^+, affects the mitochondrial Ca^2+ concentration.[60]−[63],[88]−[90] We therefore examined the cytotoxicity of CGP37157 (Chart 2), a typical inhibitor of mNCX,[60],[61],[88]−[90] against Jurkat cells by means of an MTT assay. […] For microscopic observations, Jurkat cells were treated with CGP37157 (100 μM) for 0–24 h, and cell death was observed after treatment with CGP37157 for 12–24 h, by staining with propidium iodide (PI) (Figure 3B).
HeLa S3 and A549 cells (2.0 × 10^4 cells/well) were seeded on a 96-well plate (BD Falcon) in cell culture medium and incubated overnight at 37 °C under 5% CO2. Jurkat (2.0 × 10^4 cells/well), HeLa S3, and A549 cells were treated with 4 (0–25 μM) and CGP37157 (0–100 μM) for 1, 3, 6, 12, and 24 h at 37 °C under 5% CO2, after which a MTT solution in PBS (0.5%, 10 μL) was added to each well.
Statistical analyses of MTT assays were performed by using Graphpad Prism 9 software with the Student’s t test. Data are presented as means ± the standard deviation of three independent experiments, and a P of <0.05 was considered to indicate a statistically significant difference.

[2] = test system: dynamin-related protein 1 (DRP1); assay: Western blot analysis of DRP1 in Jurkat cells
Method: In a 1.5 mL Eppendorf tube, Jurkat cells (1.0 × 10^6 cells) were incubated in the presence of 4 ([…]), CGP37157 (100 μM for 0–24 h or 0–100 μM for 12 h), and celastrol (0–10 μM for 24 h or 1 μM for 0–24 h) at 37 °C under 5% CO2. After the cells had been washed twice with PBS, the proteins were extracted by using RIPA buffer (Nacalai Tesque) and quantified using a Pierce BCA Protein Assay Kit (Thermo Scientific). Proteins (7.5 μg/well) for MFNs and DRP1 and proteins (5.0 μg/well) for GAPDH were used for sodium dodecyl sulfate–polyacrylamide gel electrophoresis (SDS–PAGE) (7.5% for MFNs and DRP1 and 10% for GAPDH) (Bio-Rad). After SDS–PAGE, the proteins were transferred to a polyvinylidene fluoride membrane (Merck Millipore) by using a semi dry blotter (Bio-Rad). The membrane was blocked with Blocking One solution (Nacalai Tesque) for 30 min at room temperature. After being blocked, the membrane was washed three times with 1× TBST and treated with primary antibodies overnight (at a dilution of 1/1000 for MFNs and DRP1 or 1/2000 for GAPDH) in a signal enhancer HIKARI-solution A (Nacalai Tesque). The membrane was washed three times with 1× TBST and treated with the anti-mouse or anti-rabbit IgG HRP-conjugated secondary antibody (at a dilution of 1/4000 for MFNs and DRP1 or 1/10000 for GAPDH) in 1× TBST for 60 min at room temperature. The protein signal was spotted with a Chemi-Lumi One Ultra solution (Nacalai Tesque) using the ChemiDoc MP system (Bio-Rad).

Jurkat cells [3] = assay: Mitochondria-ER membrane fusion, co-staining with MitoTracker Green and ER-Tracker Red
Method: To verify this hypothesis, mitochondria and the ER were stained with both MitoTracker Green and ER-Tracker Red in the presence of 4, CGP37157, and celastrol (Figure 8). Jurkat cells were stained with MitoTracker Green (0.5 μM) and ER-Tracker Red (1 μM) and then treated with 4 (5 μM) for 10–30 min (time-dependent microscopic images are presented in Figure S5). […] With regard to CGP37157 and celastrol, Jurkat cells were stained with MitoTracker Green (0.5 μM) and ER-Tracker Red (1 μM) and then treated with CGP37157 (100 μM) and celastrol (1 μM) for 1–24 h (Figure 8 and Figure S5).
In a 1.5 mL Eppendorf tube, Jurkat cells (2.0 × 10^5 cells) were stained with MitoTracker Green (0.5 μM) for 1 h at 37 °C under 5% CO2 and then ER-Tracker Red (1 μM) for 1 h at 37 °C under 5% CO2 in 10% FBS/RPMI 1640 medium (100 μL). After being washed with PBS, the cells were treated with 4 (5 μM) in 10% FBS/RPMI 1640 medium (100 μL) for 0–30 min at 37 °C under 5% CO2. For CGP37157 and celastrol, Jurkat cells were treated with CGP37157 (100 μM) or celastrol (1 μM) in 10% FBS/RPMI 1640 medium (100 μL) for 0–24 h, after which the cells were stained with MitoTracker Green (0.5 μM) for 1 h at 37 °C under 5% CO2 and then ER-Tracker Red (1 μM) for 1 h at 37 °C under 5% CO2 in PBS. The cells were washed with PBS and observed by confocal microscopy (Fluoview, FV-1000, Olympus) using a Greiner CELLview dish (35 mm × 10 mm). Excitation at 473 nm and emission from 485 to 545 nm were used for MitoTracker Green. Excitation at 559 nm and emission from 570 to 620 nm were used for ER-Tracker Red. The exposure time was 20 μs/pixel.

[4] = test system: MFN1- and/or MFN2-KD Jurkat cells; assay: MTT assay of MFN1- and/or MFN2-KD Jurkat cells; details: siRNA 10 nM, three independent experiments
Method: The roles of MFNs in the cell death induced by 4 and CGP37157 were examined by using small interfering RNA (siRNA) for MFN1 and MFN2 to knock down (KD) these proteins. […] The cytotoxicity of 4 and CGP37157 against MFN1- and/or MFN2-KD Jurkat cells was evaluated by MTT assays. […] The effect of a negative control siRNA (NCsiRNA) on the expression levels of MFNs and the cell viability of Jurkat cells was negligible, implying that MFNs are […] to the paraptosis induced by 4 and CGP37157. It should be noted that the treatment with siRNA at 5 nM for 72 h was toxic against Jurkat cells in the presence of 4 and CGP37157, although the efficiency of knockdown of these proteins by siRNA could be improved by increasing the incubation time, as shown in Figure S11.
To a solution of transfection reagent (INTERFERin, 5 μL) in OPTI-MEM (0.3 mL) in a 1.5 mL Eppendorf tube was added siRNA (10 μM, 1 or 2 μL) in H2O, and the resulting solution was allowed to stand for 15 min at room temperature. The resulting solution was then added to Jurkat cells (2.0 × 10^5 cells/mL, 1.5 mL) in 10% FBS/RPMI 1640 medium that had been seeded on a 12-well plate and incubated overnight at 37 °C under 5% CO2 (the final concentration of siRNA was 5 or 10 nM), and the resulting solution was incubated for 48 or 72 h at 37 °C under 5% CO2. The cells were collected by centrifugation (2000 rpm, 3 min, 4 °C), and the expression levels of MFNs were evaluated by Western blot analysis as described above. The cytotoxicity of 4 (3 or 5 μM), CGP37157 (50 or 100 μM), and celastrol (1 μM) against MFNs-KD Jurkat cells was evaluated by MTT assays as described above.

## O=C1CSC(c2ccccc2Cl)c2cc(Cl)ccc2N1 (centres unmarked) [CGP37157]
Jurkat cells [1]; 12 h incubation, 10% FBS/RPMI 1640, 37 °C, 5% CO2, read-out: EC50 (MTT, Jurkat cells)
  EC50: 74000 nM
Jurkat cells [1]; 24 h incubation, 10% FBS/RPMI 1640, 37 °C, 5% CO2, read-out: EC50 (MTT, Jurkat cells)
  EC50: 55000 nM
[2]; CGP37157 100 μM, 1–6 h
  Expression level of DRP1 (Figure 11B): somewhat upregulated
[2]; Figure S8B, CGP37157 10 µM, 12 h
  DRP1 band intensity relative to absence of compound: 1.6
[2]; Figure S8B, CGP37157 20 µM, 12 h
  DRP1 band intensity relative to absence of compound: 1.7
[2]; Figure S8B, CGP37157 50 µM, 12 h
  DRP1 band intensity relative to absence of compound: 1.3
[2]; Figure S8B, CGP37157 80 µM, 12 h
  DRP1 band intensity relative to absence of compound: 1.4
[2]; Figure S8B, CGP37157 100 µM, 12 h
  DRP1 band intensity relative to absence of compound: 0.89
Jurkat cells [3]; CGP37157 100 μM, 6 h
  Overlap of MitoTracker Green and ER-Tracker Red emission (mitochondria-ER membrane fusion): extensively overlapped
[4]; CGP37157 50 or 100 µM, 12 h
  Effect of knockdown of MFNs on cell death induced by the compound: weakly inhibited

## NCCCC[C@H](NC(=O)[C@H](CCCCN)NC(=O)[C@@H](N)CCCCN)C(=O)NCC(=O)NCC(=O)NCCCCCCCCNC(=O)COc1ccc(-c2ccccn2)cc1 [compound 4] (H-KKKGG-X1)
Jurkat cells [1]; 1 h
  EC50: 3200 nM
Jurkat cells [1]; 3 h
  EC50: 2000 nM
Jurkat cells [1]; 6 h
  EC50: 1500 nM
Jurkat cells [1]; 12 h
  EC50: 1200 nM
Jurkat cells [1]; 24 h
  EC50: 1700 nM
[2]; 4 at 5 μM, 30 min to 1 h
  Expression level of DRP1 (Figure 11A): somewhat upregulated
[2]; Figure S8A, 4 at 1 µM, 1 h per legend
  DRP1 band intensity relative to absence of compound: 2.0
[2]; Figure S8A, 4 at 2.5 µM, 1 h per legend
  DRP1 band intensity relative to absence of compound: 2.5
[2]; Figure S8A, 4 at 5 µM, 1 h per legend
  DRP1 band intensity relative to absence of compound: 2.6
[2]; Figure S8A, 4 at 10 µM, 1 h per legend
  DRP1 band intensity relative to absence of compound: 2.6
[2]; Figure S8A, 4 at 20 µM, 1 h per legend
  DRP1 band intensity relative to absence of compound: 1.0
Jurkat cells [3]; 4 at 5 μM, 10 min
  Overlap of MitoTracker Green and ER-Tracker Red emission (mitochondria-ER membrane fusion): extensively overlapped
[4]; 4 at 3 or 5 µM, 1 h
  Effect of knockdown of MFNs on cell death induced by the compound: weakly inhibited
